Measurements reported in publication PMC6669322, “Small Molecule Binding to Alzheimer Risk Factor CD33 Promotes Aβ Phagocytosis” (iScience, 2019).

Test system: differentiated THP-1 cells
Test: THP-1 phagocytosis assay (pHrodo E. coli BioParticles), wild-type cells
Type: cell-based, human
Details: 30 min pre-treatment, in words
Text: Having shown that P22 binds specifically to the sialic acid-binding site of this domain we now have a chemical tool to answer the question of whether the sialic acid-binding site is the appropriate target for small molecule ligands that might promote Aβ uptake. Siglecs preferentially recognize multivalent presentation of their ligands ([Rillahan et al., 2014], [Büll et al., 2016]), and for this reason we conjugated the biotinylated form of P22 to microparticles labeled with both FITC and streptavidin (P22 microparticles) (see Transparent Methods). More than 60% CD33-transfected BV2 cells were positive for P22 microparticles compared with only 30% cells that were only incubated with control particles (unconjugated to P22) (Figure 4A). […]
Figure 4 Effect of P22 on Phagocytosis The cells were treated with P22 conjugated to microparticles labeled with both streptavidin and fluorescein isothiocyanate (FITC), or with microparticles without P22 conjugated as control. […] (C) Quantification of phagocytic differentiated human THP-1 cells after incubation with P22 monomer, P22 conjugated microparticles, or microparticles without P22 conjugation. […]
THP-1 cells (control and CD33KO) were differentiated in growth media (RPMI 1640, 10% FCS) supplemented with 100 ng/mL PMA for 3 days. […] Differentiated cells were then lifted, counted and 75,000 cells/well were plated in a 96 well plate. […]

Cc1cc(C(=O)NC[C@@H](O)[C@@H](O)[C@@H]2O[C@@](OC[C@H]3O[C@@H](O[C@H]4[C@H](O)[C@@H](O)[C@H](OCCN)O[C@@H]4CO)[C@H](O)[C@@H](O)[C@H]3O)(C(=O)O)C[C@H](O)[C@H]2NC(=O)Cn2cc(C3CCCCC3)nn2)cc(C)c1O [P22, β-D-Glucopyranoside, 2-aminoethyl O-[N-[2-(4-cyclohexyl-1H-1,2,3-triazol-1-yl)acetyl]-9-deoxy-9-[(4-hydroxy-3,5-dimethylbenzoyl)amino]-α-neuraminosyl] (2→6)-O-β-D-galactopyranosyl-(1→4)-]
effect on phagocytosis of E. coli BioParticles: no effect
